The subject of the experiment is stress-induced gastric ulcer. As to the kind of experiment: Anti-ulcer activity: water-immersion restraint stress-induced gastric ulcer in rats, oral (procedure of Takagi et al.). Format: in vivo, Male Sprague-Dawley rats. The following applies: for ED50: read-out: ED50 (dose of test compound which gives 50% inhibition). As for the experimental part:
Some polyisoprene compounds according to the invention were tested to evaluate their anti-ulcer activity in comparison with Teprenone and Gefarnate as controls, in accordance with the procedure proposed by Takagi et al ["Japan. J. Pharmacol.", Vol. 18, page 9 (1968)].
Male Sprague-Dawley rats were used, each having the body weight of 183.9 to 234.5 g. The animals were deprived of food for 24 hours prior to the test. They were immobilized in a restraint cage and immersed for 7 hours to the height of the xiphoid process in a water-bath kept at 23°±1° C. After inflation with 10 ml of 1% formalin, the isolated stomach was opened along the greater curvature. The ulcer index was determined as the sum of length (mm) of each erosion per rat. The compounds were administered orally 30 minutes before the restraint.
Results are shown in following Table 1 in terms of percent inhibition of anti-ulcer activity. In the Table, ED50 represents the dose of test compound which gives 50% inhibition.

Setting [1] is: Rattus norvegicus, po, read-out: Inhibition (percent inhibition, ulcer index).
Setting [2] is: oral, 30 minutes before restraint, rat, read-out: Inhibition (percent inhibition, ulcer index).
The mark [3] stands for this setting: oral, 30 minutes before restraint, rat.

SMILES strings stand for the structures. Where two headings read alike, the source gives them in different places. Some results are limits rather than exact numbers.

What is called ED50 is the dose at which the effect has come halfway, by size or by number of responders. On to `CC(C)=CCC/C(C)=C/CC/C(C)=C/CCC(=O)OC/C=C(\C)CCC=C(C)C` [Gefarnate, reference compound], for which, for the setting “Rattus norvegicus, po”, the ED50 came out at 387 mg/kg. Under setting [1], the inhibition in vivo at 100 mg/kg is 24.6%, the inhibition in vivo at 200 mg/kg was 19.2% and the inhibition in vivo at 400 mg/kg came to 51.5%.

Turning to `CC(C)=CCCC(C)=CCCC(C)=CCCC(C)=CCCC(C)=CCCC(C)=CCCC(C)=CCCC(C)=CCCC(C)=CCSCCN` [Example 1, 2-(3,7,11,15,19,23,27,31,35-Nonamethyl-2,6,10,14,18,22,26,30,34-hexatriacontanonaen-1-ylthio)ethylamine], under setting [2], the inhibition in vivo at 12.5 mg/kg is -3.1%, the inhibition in vivo at 25 mg/kg worked out at 39.7% and the inhibition in vivo at 50 mg/kg is 55.1%. Moreover, the ED50 under setting [3] worked out at 39.7 mg/kg.

On to `CC(C)=CCCC(C)=CCSCCN` [Example 3, 2-(3,7-Dimethyl-2,6-octadien-1-ylthio)ethylamine], for which, under setting [2], the inhibition in vivo at 50 mg/kg was 13.3%. Besides, under setting [3], the ED50 was > 50 mg/kg.

In the case of `CC(C)=CCCC(C)=CCCC(C)=CCCC(C)=CCNCC12CCCN1CCC2` [Example 9, 5-{[(3,7,11,15-Tetramethyl-2,6,10,14-hexadecatetraen-1-yl)amino]methyl}-1-azabicyclo[3.3.0]octane], under setting [2], the inhibition in vivo at 12.5 mg/kg is 38.4%, the inhibition in vivo at 25 mg/kg came out at 67.9% and the inhibition in vivo at 50 mg/kg amounted to 84.9%. Also, the ED50 under setting [3] came to 16.6 mg/kg.

On to `CC(C)=CCCC(C)=CCCC(C)=CCSCCN` [Example 6, 2-(3,7,11-Trimethyl-2,6,10-dodecatrien-1-ylthio)ethylamine], for which, under setting [2], the inhibition in vivo at 50 mg/kg is 15.4%. Also, under setting [3], the ED50 is > 50 mg/kg.

As to `CC(C)=CCCC(C)=CCCC(C)=CCCC(C)=CCSCCNC(=O)CC12CCCN1CCC2` [Example 11, N-[2-(3,7,11,15-Tetramethyl-2,6,10,14-hexadecatetraen-1-ylthio)ethyl]-(1-azabicyclo[3.3.0]octan-5-yl)acetamide], under setting [2], the inhibition in vivo at 12.5 mg/kg turned out to be 9.4%, the inhibition in vivo at 25 mg/kg was 51% and the inhibition in vivo at 50 mg/kg worked out at 68.5%. The ED50 under setting [3] was found to be 26 mg/kg.

Take `CC(C)=CCCC(C)=CCCC(C)=CCCC(C)=CCSCCN` [Example 5, 2-(3,7,11,15-Tetramethyl-2,6,10,14-hexadecatetraen-1-ylthio)ethylamine]: under setting [2], the inhibition in vivo at 12.5 mg/kg is -2.8%, the inhibition in vivo at 25 mg/kg is 57.4% and the inhibition in vivo at 50 mg/kg was 88%. Besides, the ED50 under setting [3] amounted to 21.1 mg/kg.

For `CC(C)=CCCC(C)=CCCC(C)=CCCC(C)=CCCC(C)=CCCC(C)=CCCC(C)=CCCC(C)=CCCC(C)=CCCC(C)=CCNCC12CCCN1CCC2` [Example 8, 5-{[(3,7,11,15,19,23,27,31,35,39-Decamethyl-2,6,10,14,18,22,26,30,34,38-tetracontadecaen-1-yl)amino]methyl}-1-azabicyclo[3.3.0]octane], the inhibition in vivo at 50 mg/kg under setting [2] is 10.3%. Also, the ED50 under setting [3] is > 50 mg/kg.

In the case of `CC(C)=CCCC(C)=CCCC(C)=CCCC(C)=CCN(CC=C(C)CCC=C(C)CCC=C(C)CCC=C(C)C)CC12CCCN1CCC2` [Example 12, 5-{[Bis(3,7,11,15-tetramethyl-2,6,10,14-hexadecatetraen-1-yl)amino]methyl}-1-azabicyclo[3.3.0]octane], under setting [2], the inhibition in vivo at 12.5 mg/kg is 21.5% and the inhibition in vivo at 25 mg/kg turned out to be 50%. The ED50 under setting [3] was ≥ 25 mg/kg.

On to `CC(C)=CCCC(C)=CCCC(C)=CCCC(C)=CCCC(C)=CCCC(C)=CCCC(C)=CCCC(C)=CCCC(C)=CCCC(C)=CCSCCN` [Example 4, 2-(3,7,11,15,19,23,27,31,35,39-Decamethyl-2,6,10,14,18,22,26,30,34,38-tetracontadecaen-1-ylthio)ethylamine], for which, under setting [2], the inhibition in vivo at 12.5 mg/kg was 11.1%, the inhibition in vivo at 25 mg/kg came to 24.2% and the inhibition in vivo at 50 mg/kg stood at 44.4%. In addition, the 50% effective dose (ED50) under setting [3] is > 50 mg/kg.

On to `CNC(=C[N+](=O)[O-])NCCSCC=C(C)CCC=C(C)CCC=C(C)CCC=C(C)C` [Example 7, 2-Methylamino-1-nitro-2-[2-(3,7,11,15-tetramethyl-2,6,10,14-hexadecatetraen-1-ylthio)ethylamino]ethylene], for which, under setting [2], the inhibition in vivo at 12.5 mg/kg was -7%, the inhibition in vivo at 25 mg/kg was determined as 23.8% and the inhibition in vivo at 50 mg/kg was found to be 67.8%. Also, the ED50 under setting [3] stood at 37.4 mg/kg.

Take `CC(=O)CCC=C(C)CCC=C(C)CCC=C(C)CCC=C(C)C` [Teprenone, reference compound]: under setting [2], the inhibition in vivo at 25 mg/kg came to 0% and the inhibition in vivo at 50 mg/kg was determined as 9.4%. For the same compound, the inhibition in vivo at 100 mg/kg (100 mg/kg, oral, 30 minutes before restraint, rat, read-out: Inhibition (percent inhibition, ulcer index)) was found to be 48.3%. In addition, under setting [3], the ED50 was > 100 mg/kg.

Take `CC(=CCSCCN)CCCC(C)CCCC(C)CCCC(C)C` (stereo not drawn) [Example 2, 2-(3,7,11,15-Tetramethyl-2-hexadecaen-1-ylthio)ethylamine]: under setting [2], the inhibition in vivo at 12.5 mg/kg was found to be 9%, the inhibition in vivo at 25 mg/kg was 45% and the inhibition in vivo at 50 mg/kg is 69%. In addition, the ED50 under setting [3] was 30.8 mg/kg.

On to `CC(C)=CCCC(C)=CCCC(C)=CCCC(C)=CCCC(C)=CCCC(C)=CCCC(C)=CCCC(C)=CCCC(C)=CCCC(C)=CCSCCNC(=O)CC12CCCN1CCC2` [Example 10, N-[2-(3,7,11,15,19,23,27,31,35,39-Decamethyl-2,6,10,14,18,22,26,30,34,38-tetracontadecaen-1-ylthio)ethyl]-(1-azabicyclo[3.3.0]octan-5-yl)acetamide], for which, under setting [2], the inhibition in vivo at 12.5 mg/kg amounted to 27.3% and the inhibition in vivo at 25 mg/kg is 33.9%. Besides, the median effective dose (ED50) under setting [3] was > 50 mg/kg.
